Experimental data as given in a melting point compilation (Tetko et al.; mined from patent text by program, amines drawn as free bases though some values may be those of a salt).

melting point [°C] | Compound
339 to 343 | COc1ccc(C=C2SC(N3CCOCC3)=NC2=O)cc1-c1ccc(O)c(C23CC4CC(CC(C4)C2)C3)c1
189 to 190 | CC(C)(C)C1(O)CCN(C(=O)C2c3ccccc3CCc3ccccc32)CC1
156 to 158 | COc1ccc2c(c1)CCC(=O)N(C(C)=O)CCCC2=O
66 to 69 | CCCCCCN=C1SC(=CC(=O)O)C(=O)N1CCCCCC
147 to 149 | COc1ccccc1N1CCN(CC(O)COc2ccccc2-c2ccnc(N)n2)CC1 (stereo not drawn)
71 to 73 | CCOC(=O)CC1Nc2ccccc2CC(N)C1=O (stereo not drawn)
128 to 129 | CSC(C)(C)C(=O)N[C@@H](CSSC[C@H](NC(=O)C(C)(C)SC)C(=O)O)C(=O)O
185 to 187 | COc1c(NC(=O)Nc2ccc(Oc3ccoc(=O)c3)c3ccccc23)cc(C(C)(C)C)cc1NS(C)(=O)=O
88 to 89 | CCCn1nc(-c2ccncc2)nc1-c1ccncc1
115 to 117 | COc1cc2ccc(C3CO3)cc2cc1OC (stereo not drawn)
113 | O=C(N1CCOCC1)C(Cl)(c1ccccc1)c1ccccc1
82.3 to 82.4 | COCCOc1ccc(CCCOC(=O)N2CCOCC2)c(Oc2ncc(C(F)(F)F)cc2Cl)c1
104 to 106 | Cc1cccc(C)c1N(CCn1ccnc1)C(=O)CCCc1cccnc1
142 to 143 | Cc1c(NC(=O)c2ccc(OC[C@@H]3CCCO3)cc2)ccc2cc(CNCC(C)C)cnc12
89 to 90 | COC=C(C(=O)OC)N(C)c1cccc(-c2ccccc2)n1
273 to 278 | COc1cc2c(Nc3ccc(Sc4nccn4C)c(Cl)c3)c(C#N)cnc2cc1/C=C/CCO
112 to 114 | COc1cc(C2=C(c3cn(CCCNC(=O)C(CO)NC(=O)OC(C)(C)C)c4ccccc34)C(=O)NC2=O)cc(OC)c1OC (stereo not drawn)
145 to 149 | CC[C@H](C)[C@H](NC(=O)OCc1ccccc1)C(=O)Nc1nncs1 (racemic)
168 to 170 | Oc1ccc2c(c1)OCC(c1ccccc1)C2c1ccc(OCCN2CCCCC2)cc1 (stereo not drawn)
158 to 159 | CC(C)(C)c1cc(SCCC(=O)NNC=O)cc(C(C)(C)C)c1O
342 to 343 | Cn1c(=O)[nH]c2nccnc2c1=O
68 to 70 | CCCc1cc(NCc2ccc(Cl)cc2)nc(SCC#N)n1
295 to 297 | CCOC(=O)c1cn2c3c(c(-c4cc(C)nc(C)c4)c(F)c(F)c3c1=O)OC[C@@H]2C
138 to 140 | COc1ccnc(CCc2nc3cc(-c4ccc(S(=O)(=O)N5CCN(C(C)=O)CC5)cc4)cnc3[nH]2)c1

melting point [°C] | Compound
85 to 86 | COc1ccc(CCNCC(O)c2cc(OCc3ccccc3)cc(OCc3ccccc3)c2)cc1OC (stereo not drawn)
132 to 133 | Oc1ccc(C(F)(F)F)c2ccccc12
89 to 91 | CCC(C)S(=O)(=O)c1cc(C(F)(F)F)ccc1C(=O)c1cnoc1C1CC1 (stereo not drawn)
147 to 151 | CNC(=O)C(Cc1ccc(OC)cc1)NC(=O)C(CC(C)C)C(CC(=O)OC(C)(C)C)SC(C)=O (stereo not drawn)
157 to 161 | Cc1noc(-c2cccc(NC(=O)N[C@@H]3c4cc(C#N)ccc4OC(C)(C)[C@H]3O)c2)n1
160 | CC(=O)OC1CSC(Oc2cccnc2F)C(OC(C)=O)C1OC(C)=O (stereo not drawn)
107 to 109 | CCOC(=O)c1cn2c3c(cc(C)cc3c1=O)C1CCCCC12 (stereo not drawn)
117 to 118 | Nc1ncccc1NCc1ccc(Oc2ccc(F)cc2)cc1
158 to 160 | O=CNc1nc(CSc2ccc([N+](=O)[O-])cc2)cs1
94 to 96 | COC1C(O)CCC(O)(CSc2ccccc2)C1C1(C)OC1CC=C(C)C (stereo not drawn)
217 to 218 | CCOC(=O)c1ccc(CCN2CC=C(c3c[nH]c(-c4ccc(F)cc4)c3-c3ccncc3)CC2)cc1
162 to 164 | Cc1ccc(-c2nnc(N3CCCCCC3)nc2-c2ccc(C)cc2)cc1
216 to 218 | OCc1ccc2cnn(-c3ccnc(N[C@H]4CC[C@H](O)CC4)n3)c2c1
123 | O=C(CCCCCN1CCN(c2ccc3c(c2)CCCC3)CC1)N1Cc2ccccc2C1
192 to 194 | COCc1c(C)ccc(C(O)=S)c1C
248 | Cn1cc(-c2cc(-c3cnc4[nH]ccc4c3)ccn2)n(-c2ccc(C(C)(C)C#N)cc2)c1=O
97 to 100 | COc1ccc(Br)c2c1CC(=O)CO2
238 | CS(=O)(=O)c1cccc(NC(=O)c2cnn3c(C(F)F)cc(-c4ccc(C(F)(F)F)c(F)c4)nc23)c1
236 to 240 | O=c1[nH]c2ccccc2n1-c1ncnc2nn(C3CCCC3)cc12
174 to 178 | O=S(=O)(NC(Cc1ccc(O)cc1)c1ccccc1)c1ccc(Cl)cc1 (stereo not drawn)
158 to 159 | CC(C)N(c1ccc(O)cc1)S(=O)(=O)c1ccc(O)cc1
152 to 153 | Cc1c(C(=O)c2cnn(C)c2OCc2ccccc2)ccc(S(C)(=O)=O)c1C1=NOCC1
253 to 255 | Cc1cccc(-c2nc(NC3CCCCC3)c3ccccc3n2)n1
81 to 83 | O=c1cc(NCCNCCOc2cccc3c2OCCO3)cn[nH]1

melting point [°C] | Compound
154 to 156 | CC(=O)c1ccc(CNC(=O)c2cccnc2Oc2ccc3nonc3c2)cc1
139 to 140 | CNC(=O)NCCn1c(-c2ccc(CN3CCOCC3)c(C)c2)csc1=Nc1ccc(F)c(C)c1
192 to 196 | COC(=O)C1=C2c3sccc3SC(Cl)CN2CC(c2ccccc2)=C1 (stereo not drawn)
131 to 132 | CC(Cc1cc([N+](=O)[O-])cc2ccoc12)NC(=O)OC(C)(C)C (stereo not drawn)
239 to 240 | CCOc1c(OC)cc(C(=O)NN=C2CCCC2=Cc2ccccc2)cc1OC
182 to 185 | CC(=O)N1CCN=C1Nc1c(Br)cccc1Br
62 to 63 | CCCCNc1c(C(=O)OCC)c(C)nc2c1ncn2C
198 to 200 | COC(=O)c1cc(S(N)(=O)=O)c(Br)cc1C
78 to 80 | CC(C)C(=O)NCC(=O)c1ccco1
199 to 200 | O=C(/C=C/c1ccc(S(=O)(=O)N2CCN(c3ccc([N+](=O)[O-])cc3)CC2)cc1)NO
219 to 220 | O=C(CC12CC3CC(CC(C3)C1)C2)Nc1c(Cl)ccc2ncccc12
> 300 | Cc1c(CCc2ccc3nc(N)oc3c2)nc2cc(CCl)ccn12
153 to 167 | CC(C)(C)c1ccc(/C=C/C(=O)Nc2ccc3c(c2)NCC3)cc1
55.5 to 57.5 | N#CCc1ccc(Br)nc1
153 to 156 | CN(C)S(=O)(=O)c1ccc(NC(=O)C2(C)CC2)cc1C(F)(F)F
100 to 101 | COC(=O)C1C(c2ccc(F)c(C)c2)=CC2(CC1(C)C)SCCCS2 (stereo not drawn)
106 to 107 | CCCCN/C(=C1/Sc2ccccc2C1=O)c1ccccc1
203 to 205 | CC(=O)OCCn1c([N+](=O)[O-])cnc1C=O
24 to 25 | CCOCc1cc(CCCOc2c(C)cc(-c3noc(C(F)(F)F)n3)cc2C)on1
108 | CCc1nn(C(C)CCCc2ccccc2)c2nc(Cc3ccc(-c4cccc(N)c4)cc3)[nH]c(=O)c12 (stereo not drawn)
114 to 117 | Oc1cccc(CCCc2cc(C(c3ccccc3)c3ccccc3)on2)c1
203 to 205 | Cc1nnc(-c2cc3c(OC[C@@H](O)CN4CCC(c5cccc6ccccc56)CC4)cccc3[nH]2)o1
290 | Cc1cc(C(=O)Nc2ccc(Cl)nc2)ccc1[N+](=O)[O-]
199 to 201 | CCC(Oc1ccc(C(C)(C)CC)cc1C(C)(C)CC)C(=O)Nc1cc(O)c(NC(=O)c2ccccc2NS(C)(=O)=O)cc1Cl (stereo not drawn)

melting point [°C] | Compound
163 | NC(=O)c1snnc1C1CC1
68.5 to 69.5 | CCCS(=O)(=O)Oc1ccc(CO)c(Oc2ncc(C(F)(F)F)cc2Cl)c1
> 300 | Cc1ccc2c(n1)sc1c(O)cnnc12
95 to 96 | CCOC(=O)COc1nc2cc(OC)cc(OC)c2cc1-c1ccc(OC)cc1
126 to 128 | CCOC(=O)c1cnc2c(cnn2CC)c1Nc1ccccc1N
194 to 195 | Cc1cn(C)c2c1N(C(=O)CCBr)c1ccccc1NC2=O
236 | Cc1ccncc1OC1SCC(O)C(O)C1O (stereo not drawn)
216 to 218 | COCCCCC(=O)c1cc(C(=O)O)c2cc(Cc3ccc(F)cc3)cnc2c1O
91 to 93 | CC(=O)c1ccc(OC(CCCCC(=O)O)c2ccccc2)cc1O (stereo not drawn)
79 to 80 | CCCCCCCCCCCCCCCCCCNC(=O)OC[C@H]1CC[C@@H](CO)O1 (relative stereo)
159 to 160 | Cc1nn(C)c2c1c1oc(=O)c(Sc3ccccc3)c(O)c1c(=O)n2Cc1ccc(F)cc1
83 to 86 | COC(=O)c1ccc(Cl)cn1
238 to 240 | OCc1ccc(-c2ccc3nc(-c4ccccc4)cn3c2)cc1
170 | CCCCCCCNC(=O)Nc1ccccc1C(=O)NCCn1cnc(-c2ccccc2)c1-c1ccccc1
215 to 217 | NS(=O)(=O)c1ccc(-n2nc(C(F)(F)F)cc2-c2ccc(-c3ncco3)cc2)cc1
235 to 236 | O=C(Nc1cccnn1)N1CCN(c2ccnc(-c3cccc(F)c3F)n2)CC1
63 to 65 | O=[N+]([O-])c1ccc(OCC(F)(F)F)c(OCC(F)(F)F)c1
273 to 275 | CS(=O)(=O)c1ccccc1-c1ccc(C(=O)O)cc1
127 to 129 | CCc1cccc2c1C(=O)N(Cn1nnn(-c3ccccc3)c1=S)S2(=O)=O
196 | CC1(C)OC(c2ccc(S(C)(=O)=O)cc2)=C(Br)C1=O
250 | O=C(O)c1c(Cc2cc3c(cc2Cl)OCO3)c(-c2ccsc2)nn1CC1CCCCC1
125 to 127 | CC(C)c1ccc(OCCCN2CCN(c3ccc(Cl)nn3)CC2)cc1

Compound | melting point [°C]
C[C@H]1[C@@H](O)[C@H](Cc2ccccc2)C(=O)N1c1ccc(C#N)c(Cl)c1 | 99 to 101
CS(=O)c1cccc2c1C(=O)N1CCCC1c1c(C(=O)OC(C)(C)C)ncn1-2 (stereo not drawn) | 224 to 225
Fc1ccc(Cn2c(NC3CCN(CCc4ccccc4)CC3)nc3ccc(F)cc32)cc1 | 178
CN1Cc2c(C(=O)OCC3CC3)ncn2-c2cccc(Cl)c2C1=O | 194 to 195
